According to patent US5117052A, “Physiologically active substances, benastatins A and B, and production and use thereof” (priority 1990, dated 1992):
Converted amounts (≈) assume the structure as drawn.

How the values were obtained:
glutathione transferase = target: T1, glutathione transferase (Rattus norvegicus, UniProt P04905); test: Glutathione transferase inhibition activity (3,4-dichloronitrobenzene/glutathione, absorption at 345 nm); assay type: biochemical
T1 construct: obtained from a homogenate of rat liver; from tissue; host or cells: rat liver homogenate, partially purified by DEAE-cellulose column and ammonium sulfate salting-out
Experimental: The glutathione transferase inhibition activity was determined by a modified method based on the known method described in Biochemical and Biophysical Research Communications, 112, 980-985 (1983).
A test tube was charged with a solution mixture consisting of (a) 0.1 ml of 90 mM glutathione (reduction type), (b) 0.05 ml of 20 mM 3,4-dichloronitrobenzene, (c) 1.7 ml of 0.1M potassium phosphate buffer solution (pH 7.4) and (d) 0.1 ml of an aqueous solution containing the test compound. The solution mixture was heated to 37° C. for 3 minutes, and admixed with 0.05 ml of a glutathione transferase solution to effect a reaction at 37° C. for 30 minutes. The glutathione transferase solution employed was one which had been obtained from a homogenate of rat liver and which had been patially refined by means of a DEAE-cellulose column and of salting out-operation with ammonium sulfate.
After the completion of the reaction, the sample was measured for the light absorption (a) at 345 nm. At the same time, a control sample which was free of the test compound and which contained only the buffer solution was measured for the light absorption (b) at 345 nm.
The glutathione transferase inhibition activity was determined according to the formula: […]
IC50, which is the concentration of a test compound required for 50% inhibition, was recorded.

[1] = tested on: murine spleen cells (LPS-induced lymphocyte blastogenesis); test: Effect on LPS-induced murine lymphocyte blastogenesis in vitro (Test 4); assay type: cell-based, BALB/c mouse
Experimental: (§1) In lymphocyte blast formation reaction, use was made of benastatin B as a solution prepared in a manner, wherein benastatin B was dissolved in methanol and admixed with PBS(-), with the proviso that the concentration of methanol in the final solution was 0.5%.
(§2) (a) Effect on lymphocyte blast formation reaction
(§3) For the cultivation, use was made of RPMI 1640 culture medium supplemented with 20% bovine fetus serum, 25 mM Hepes buffer, 100 μg/ml streptomycin and 100 units/ml penicillin G. The cultivation was carried out in a microplate (COSTAR) with flat bottom and with 96 wells. As the mitogens, lipopolysaccharide (LPS) and concanavalin A (Con A) were used at the final concentrations of 100 μg/ml and 5 μg/ml, respectively.
(§4) Spleen cells were taken out from BALB/c mouse (female, at most 20 weeks old) to prepare a unicellular dispersion of spleen cells. This dispersion was subjected to a hyper shock treatment to remove erythrocytes therefrom. The resulting spleen cell sample was directly used in the test employing LPS. Alternatively, the spleen cell sample was filtered through Nylon Fiber (manufactured by Wako Jun-yaku Co., Ltd.) for removing […] therefrom, and then the cell sample was used in the test employing Con A.
(§5) Each well was charged with 0.2 ml of a test sample containing 2×10^5 murine spleen cells and the test compound at a predetermined concentration. The cultivation was effected for 72 hours. Before 8 hours from the termination of the cultivation, the wells each were charged with 37 KBq of [^3 H]-thymidine in order to determine the amount of thymidine taken into the cells. The effect of the test compound was estimated by comparing the test samples with the control samples, with respect to the amount of [^3 H]-thymidine taken into the cells.

[2] = tested on: murine spleen cells (Con A-induced lymphocyte blastogenesis); test: Effect on Con A-induced murine lymphocyte blastogenesis in vitro (Test 4); assay type: cell-based, BALB/c mouse; details: Mus musculus, 72 h
Experimental: as §1, §2, §3, §4, §5

[3] = tested on: graft versus host reaction (GvH); test: Effect on graft versus host reaction (GvH) in vivo; parameters: species or system mouse (C57BL/6 spleen cells into BDF1 mouse); details: for Spleen/body weight / Index (spleen/body weight; non induced = 1.00): subcutaneous, 3 days, day 7; for Index (spleen/body weight; non induced = 1.00): induced = 1.84
Text: In the graft versus host reaction (GvH), use was made of benastatin B dissolved in physiological saline.
(b) Effect on graft versus host reaction (GvH)
The effect on GvH was estimated according to a modified method based on the method described in M. Simonsen et al, "A study of the graft versus host reaction in transplantation to embryos, F1 hybrids, and irradiated animals", Ann. N.Y. Acad. Sci., 73, 834-841 ([…]).
Spleen cells were taken out from C57BL/6 mouse (female, 10 weeks old) to prepare a murine spleen cell sample containing 5×10^6 spleen cells according to the method as mentioned above. The spleen cell sample was transplanted into the abdominal cavity of BDF1 mouse (7 days old) as the F1 acceptor. The test compound at a predetermined concentration was subcutaneously injected over a period of time of 3 days including the initial day of said transplantation. After 7 days from the inital transplantation, measurements were made about the body weight and the spleen weight of the BDF1 mouse to calculate the ratio (mg/g) of spleen weight (mg) to body weight (g).

mouse = test: Toxicity on administration to the abdominal cavity; assay type: in vivo; details: 100 mg/kg
Text: Benastatins A and B were each administered to the abdominal cavity of a mouse to examine the toxicity thereof.

[4] = tested on: Bacillus cereus ATCC10702; test: Agar dilution assay, minimum growth inhibition concentration; assay type: cell-based
Experimental: (§6) The minimum of microorganism growth inhibition concentrations of benastatins A and B were determined for various bacteria, east and fungi according to a conventional agar dilution assay method. It will be seen from Table 1 that benastatins A and B have a satisfactory antimicrobial activity, particularly against gram-positive bacteria, etc.

[5] = tested on: Bacillus subtilis NRRL B-558; test: as above; assay type: cell-based; details: NRRLB558
Experimental: as §6

Cochliobolus miyabeanus = test: as above; assay type: cell-based; details: Bipolaris oryzae
Experimental: as §6

[6] = tested on: Corynebacterium bovis 1810; test: as above; assay type: cell-based
Experimental: as §6

[7] = tested on: Cryptococcus neoformans F-10; test: as above; assay type: cell-based; details: F10
Experimental: as §6

Micrococcus luteus FDA16 = test: as above; assay type: cell-based
Experimental: as §6

[8] = tested on: Staphylococcus aureus MS9610; test: as above; assay type: cell-based
Experimental: as §6

[9] = tested on: Staphylococcus aureus Smith; test: as above; assay type: cell-based
Experimental: as §6

[10] = tested on: Staphylococcus aureus No. 5 (MRSA); test: as above; assay type: cell-based; details: read-out: Minimum growth-inhibition concentration
[11] = tested on: Staphylococcus aureus No. 17 (MRSA); test: as above; assay type: cell-based; details: read-out: Minimum growth-inhibition concentration
Escherichia coli NIHJ = test: as above; assay type: cell-based; details: Escherichia coli, read-out: Minimum growth-inhibition concentration
[12] = tested on: Shigella dysenteriae JS11910; test: as above; assay type: cell-based; details: JS11910, read-out: Minimum growth-inhibition concentration
Salmonella typhi T-63 = test: as above; assay type: cell-based; details: Salmonella enterica
Proteus rettgeri GN311 = test: as above; assay type: cell-based; details: Providencia rettgeri, GN311, read-out: Minimum growth-inhibition concentration
[13] = tested on: Pseudomanas aeruginosa A3; test: as above; assay type: cell-based; details: read-out: Minimum growth-inhibition concentration
[14] = tested on: Klebsiella pneumoniae PCI602; test: as above; assay type: cell-based; details: Klebsiella pneumoniae, PCI602, read-out: Minimum growth-inhibition concentration
[15] = tested on: Mycabacterium smegmatis ATCC607; test: as above; assay type: cell-based; details: read-out: Minimum growth-inhibition concentration
Candida tropicalis F-1 = test: as above; assay type: cell-based; details: Candida tropicalis, F1, read-out: Minimum growth-inhibition concentration
[16] = tested on: Saccharomyces cerevisiae F-7; test: as above; assay type: cell-based; details: Saccharomyces cerevisiae, F7, read-out: Minimum growth-inhibition concentration
Pyricularia oryzae = test: microbe, parasite or virus in culture; assay type: cell-based; details: read-out: Minimum growth-inhibition concentration
Aspergillus niger F-16 = test: Agar dilution assay, minimum growth inhibition concentration; assay type: cell-based; details: Aspergillus niger, F16, read-out: Minimum growth-inhibition concentration
[17] = Mus musculus, Lymphocyte, 72 h, read-out: Stimulation index LPS
[18] = read-out: Stimulation index Con A

T1 sequence (P04905 2-218 limits assumed): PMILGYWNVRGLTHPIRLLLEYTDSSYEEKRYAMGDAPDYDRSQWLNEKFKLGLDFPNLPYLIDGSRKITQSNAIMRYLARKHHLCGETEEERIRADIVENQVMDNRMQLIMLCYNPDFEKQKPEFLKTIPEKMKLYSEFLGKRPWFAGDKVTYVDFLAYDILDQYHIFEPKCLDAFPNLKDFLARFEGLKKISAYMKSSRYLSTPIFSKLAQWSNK

CCCCCc1cc2c(c(O)c1C(=O)O)-c1cc3c(c(O)c1CC2)C(=O)c1c(O)cc(O)cc1C3(C)C [Benastatin B, benastatin B]
IC50 (glutathione transferase): 1830 nM | activity at 6.25 µg/mL [1, 17]: 138% | activity at 12.5 µg/mL [1, 17]: 58.9% | activity at 50 µg/mL [1, 17]: 0.4% | activity at 3.13 µg/mL ([1]; Mus musculus, Lymphocyte, 72 h, 3.13 μg/ml, control = 100, read-out: Stimulation index LPS): 148% | activity at 25 µg/mL ([1]; Mus musculus, Lymphocyte, 72 h, 25 μg/ml, control = 100, read-out: Stimulation index LPS): 0.2% | activity at 100 µg/mL ([1]; Mus musculus, Lymphocyte, 72 h, 100 μg/ml, control = 100, read-out: Stimulation index LPS): 0.2% | minimal effective concentration ([1]; Mus musculus, Lymphocyte, 72 h, read-out: concentration that significantly suppresses LPS-induced lymphocyte blast formation): ≥ 12.5 µg/mL | effect on LPS-induced lymphocyte blast formation at a low concentration ([1]; low concentration): potentiates | activity at 3.13 µg/mL ([2]; 3.13 μg/ml, control = 100, read-out: Stimulation index Con A): 106% | activity at 25 µg/mL ([2]; 25 μg/ml, control = 100, read-out: Stimulation index Con A): 1% | activity at 100 µg/mL ([2]; 100 μg/ml, control = 100, read-out: Stimulation index Con A): 0.9% | activity at 6.25 µg/mL [2, 18]: 12.6% | activity at 12.5 µg/mL [2, 18]: 26.8% | activity at 50 µg/mL [2, 18]: 1% | minimal effective concentration ([2]; read-out: concentration that significantly suppresses Con A-induced lymphocyte blast formation): ≥ 6.25 µg/mL | Spleen/body weight ([3]; 0.5 mg/kg): 12.5 ± 2.2 mg/kg | Index (spleen/body weight; non induced = 1.00) ([3]; 0.5 mg/kg): 2.78 | Spleen/body weight ([3]; 5 mg/kg): 11.5 ± 0.8 mg/kg | Index (spleen/body weight; non induced = 1.00) ([3]; 5 mg/kg): 2.56 | Spleen/body weight ([3]; 50 mg/kg): 10.6 ± 1.3 mg/kg | Index (spleen/body weight; non induced = 1.00) ([3]; 50 mg/kg): 2.36 | effect on GvH ([3]; various amounts, strongest in a lower amount): significantly promotes GvH | Toxicity (mouse): No toxicity was observed | MIC [4]: 3.12 µg/mL (≈ 6.21 µM) | MIC [5]: 3.12 µg/mL (≈ 6.21 µM) | MIC (Cochliobolus miyabeanus): > 25 µg/mL | MIC [6]: 3.12 µg/mL (≈ 6.21 µM) | MIC [7]: 50 µg/mL (≈ 99.5 µM) | MIC (Micrococcus luteus FDA16): 3.12 µg/mL (≈ 6.21 µM) | MIC [8]: 3.12 µg/mL (≈ 6.21 µM) | MIC [9]: 3.12 µg/mL (≈ 6.21 µM) | MIC [10]: 3.12 µg/mL (≈ 6.21 µM) | MIC [11]: 3.12 µg/mL (≈ 6.21 µM) | MIC (Escherichia coli NIHJ): 100 µg/mL (≈ 199 µM) | MIC [12]: > 50 µg/mL | MIC (Salmonella typhi T-63): > 50 µg/mL | MIC (Proteus rettgeri GN311): 50 µg/mL (≈ 99.5 µM) | MIC [13]: 50 µg/mL (≈ 99.5 µM) | MIC [14]: > 50 µg/mL | MIC [15]: 12.5 µg/mL (≈ 24.9 µM) | MIC (Candida tropicalis F-1): > 50 µg/mL | MIC [16]: > 50 µg/mL | MIC (Pyricularia oryzae): 50 µg/mL (≈ 99.5 µM) | MIC (Aspergillus niger F-16): > 100 µg/mL
